Data from patent publication US8216785B2, “Method for detecting neuroblastoma” (Fujifilm Corporation, priority 2008, dated 2012).
Non-standard residues stand in square brackets, D forms with d. Residues, ends and D or L forms follow the SMILES beside them. *: point of attachment. Nle = CCCC[C@H](N)C(=O)O; Cbz = O=C(OCc1ccccc1)*; CH2F = FC*

What was measured:
Assay type in all cases: cell-based
GOTO cells [1] = test: Frequency of dead cells via trypan blue exclusion after adenovirus infection; details: zVAD 100 μM
Experimental: (§1) The cells that had been sowed under the same conditions as in (b) were infected with the same MOIs of Ad-LacZ or Ad-LAPTM5. Also, the cell lines were treated or not treated with the pan-caspase inhibitor, zVAD-fink. The number of dead cells was determined via trypan blue exclusion 2 days and 4 days after infection and was indicated in terms of percentage. A vertical line represents the standard deviation of two experiments.
(§2) In order to inspect whether or not LAPTM5 expression is associated with cell death of neuroblastoma cells, the influence of forced LAPTM5 expression in the neuroblastoma cell line was inspected using the adenovirus-mediated expression system. Cell death and the survival rate were assayed by sowing the cells on a 24-well plate and infecting the cells with the selected MOIs of viruses (multiplicities of infection; PFU/cell). The number of dead cells was determined via trypan blue exclusion 2 or 4 days after infection. The pan-caspase inhibitor, zVAD-fml, was used at a concentration of 100 μM. At least 200 cells were counted in each experiment. The number of survived cells was determined via colorimetric assay using a water-soluble tetrazolium salt (the cell counting kit-8; Dojindo Laboratories).

IMR32 cells = test: as above; details: zVAD 100 μM
Experimental: as §1, §2

GOTO cells [2] = test: Treatment with MPP+ or H2O2: cell death, LAPTM5 expression (quantitative RT-PCR), MYCN expression (Western blot); details: for LAPTM5 expression / frequency of cell death: MPP+ 1 or 2 mM 24 hours, H2O2 100 or 200 uM 48 hours; for MYCN expression: MPP+ or H2O2 treatment
Experimental: In FIG. 5(a), the GOTO cells were treated with MPP+ (1 or 2 mM) for 24 hours or with H2O2 (100 or 200 uM) for 48 hours. Thereafter, the dead cells were assayed via trypan blue exclusion. The LAPTM5 expression level was analyzed via quantitative RT-PCR. A vertical line represents the standard deviation of two experiments.
The prepared samples were subjected to SDS-PAGE, and Western blot analysis was carried out using relevant antibodies.
The cause for NB cell degeneration upon regression of favorable NB tumors has not yet been elucidated. […] This indicates a common mechanism between NB tumor regression and cell degeneration in the case of neurodegenerative diseases. Mitochondrial injury and oxidative stress are known to be deeply involved in neuron degeneration in the case of neurodegenerative disease. […] MYCN proteins are known to not only activate but also suppress transcription of various target genes. Accordingly, MYCN proteins that have been activated via amplification were considered to suppress activation of LAPTM5 transcription induced by stress. Thus, whether or not MYCN would directly bind to a site in the vicinity of the transcription initiation point of the LAPTM5 gene was inspected via ChIP assay. […] Meanwhile, the IMR32 cell line is known to differentiate into nerve cells via treatment with retinoic acid.

[3] = system: LAPTM5 in Ad-LAPTM5-infected GOTO cells; test: LAPTM5 accumulation upon blocking proteasomal or lysosomal degradation, Western blot and fluorescent staining; details: treated one day after Ad-LAPTM5 infection for additional one day
Experimental: The cells were treated with a proteasome inhibitor (ALLN or MG132) or a lysosomal degradation inhibitor (Bafilimycin A1 or […]) 1 day later. The cells were recovered 1 day later, the samples were prepared, and Western blot analysis was then carried out. The prepared samples were subjected to SDS-PAGE, and Western blot analysis was carried out using relevant antibodies.
As with the case of (a), the cells were treated, fixed, subjected to the immune reaction using the LAPTM5 antibody, and visualized with the use of the Texas Red complex secondary antibody.
After the control or LAPTM5 siRNA was transfected, the cells were treated as with the case of (a), and the samples were prepared. Western blot analysis was carried out using the LAPTM5 antibody.
(§3) Accordingly, whether or not LAPTM5 would undergo proteasomal or lysosomal proteolysis and whether or not LAPTM5 accumulation would be important for cell death were inspected. One day after Ad-LAPTM5 infection, the cells were treated with a proteasome inhibitor (ALLN or MG132) or a lysosome inhibitor (Bailomycin A1 and NH4Cl) for additional one day. Thereafter, the cells were recovered, samples were prepared, and Western blot analysis was performed. […] Further, this accumulation was also confirmed via fluorescent staining using the LAPTM5 antibody (FIG. 4b). […] Thus, LAPTM5 was considered to undergo proteasomal and lysosomal proteolysis, and LAPTM5 accumulation was considered to be deeply involved with induction of cell death. In order to examine whether or not LAPTM5 accumulation would be essential for induction of cell death, the influence of transfection of siRNA against LAPTM5 was then examined.

[4] = system: Ad-LAPTM5-infected GOTO cells; test: Cell death frequency along with LAPTM5 accumulation, trypan blue exclusion; details: treated one day after Ad-LAPTM5 infection for additional one day
Experimental: As in the case of (a), the cells that had died upon treatment were assayed via trypan blue exclusion. A vertical line represents the standard deviation of two experiments.
as §3

[5] = system: GOTO cells that stably express GFP-LC3; test: Treatment with an LMP inducer, immunoblot of GFP-LC3 type II and p62/SQSTM1; details: CPX 100 or 300 μg/ml
Experimental: The GOTO cells (1×10^6 cells/well) that stably express GFP-LC3 were sowed on a 6-well plate and treated with ciprofloxican (CPX) (100 or 300 μg/ml) or a solvent thereof (0.1N hydrochloric acid) so as to induce LMP. The total cell extract obtained from the treated cells was electrophoresed via SDS-PAGE and subjected to immunoblot analysis using antibodies reacting with relevant proteins.
LAPTM5 is known to be a membrane protein that localizes in the lysosome. […] Such changes in LTR staining patterns result from LMP, which indicates destabilization and destruction of the lysosome. LMP was observed along with an increase in LAPTM5-induced cell death (2.7 times in GOTO cell (p=0.0007) and 5.4 times in IMR32 cell (p=0.0108), compared with Ad-LacZ cell; FIG. 11). […] Accordingly, LAPTM5-induced LMP was deduced to induce blocking of the autophagy pathway. […] In conformity with the results of in vitro observation, elevated expression of p62/SQSTM1, ubiquitinated proteins, and cathepsin D was also observed via immunohistological staining (FIG. 3f). […] At the same time, lysosome instability induced by LAPTM5 was considered to induce accumulation of immature autophagic vesicles and ubiquitinated proteins.

COC(=O)C[C@H](NC(=O)[C@H](C)NC(=O)[C@@H](NC(=O)OCc1ccccc1)C(C)C)C(=O)CF [zVAD-fmk] (Cbz-Val-Ala-Asp(OMe)-CH2F)
inhibition of Ad-LAPTM5-induced cell death by caspase inhibitor (GOTO cells [1]): would not be inhibited | inhibition of Ad-LAPTM5-induced cell death by caspase inhibitor (IMR32 cells): would not be inhibited

OO [H2O2]
LAPTM5 expression (GOTO cells [2]): activated | frequency of cell death (GOTO cells [2]): frequency of concentration-dependent cell death increased | MYCN expression (GOTO cells [2]): decrease

CO/C1=C\C(C)=C\[C@@H](C)[C@@H](O)[C@@H](C)C/C(C)=C/C=C/[C@H](OC)[C@@H]([C@@H](C)[C@@H](O)[C@H](C)[C@@]2(O)C[C@@H](O)[C@H](C)[C@@H](C(C)C)O2)OC1=O [Bafilomycin A1]
accumulation of expressed LAPTM5 [3]: significantly accumulated | cell death frequency [4]: significantly increased

C[n+]1ccc(-c2ccccc2)cc1 [MPP+, 1-methyl-4-phenylpridinium]
LAPTM5 expression (GOTO cells [2]): activated | frequency of cell death (GOTO cells [2]): frequency of concentration-dependent cell death increased | MYCN expression (GOTO cells [2]): decrease

CC(C)C[C@@H](C=O)NC(=O)[C@H](CC(C)C)NC(=O)[C@H](CC(C)C)NC(=O)OCc1ccccc1 [MG132] (Cbz-Leu-Leu-Leu-aldehyde)
accumulation of expressed LAPTM5 [3]: significantly accumulated | cell death frequency [4]: significantly increased

CCCC[C@@H](C=O)NC(=O)[C@H](CC(C)C)NC(=O)[C@H](CC(C)C)NC(C)=O [ALLN] (Ac-Leu-Leu-[Nle]-aldehyde)
accumulation of expressed LAPTM5 [3]: significantly accumulated | cell death frequency [4]: significantly increased

O=C(O)c1cn(C2CC2)c2cc(N3CCNCC3)c(F)cc2c1=O [ciprofloxacin]
LC3-II detection [5]: LC3-II was detected | p62/SQSTM1 protein accumulation [5]: p62/SQSTM1 protein accumulation was observed

Cl.N [NH4Cl]
accumulation of expressed LAPTM5 [3]: significantly accumulated | cell death frequency [4]: significantly increased
